# From US11840686B2, “Modulation of prekallikrein (PKK) expression” (Ionis Pharmaceuticals, Inc., priority 2013, dated 2023)
# Strand notation (5' to 3'): a small letter for the sugar, then the base; units joined by * are phosphorothioate-linked, units joined directly phosphodiester-linked; [ ] holds rarer units or linkages, { } end groups; capitals alone tell only the bases. e = 2'-O-(2-methoxyethyl) (MOE); k = constrained ethyl (cEt); [5mC] = 5-methylcytosine; d = 2'-deoxy (DNA)
# Test system: human PKK mRNA
# Assay: Antisense inhibition of human PKK mRNA in HepaRG cells, 1,000 nM, MOE/deoxy/cEt oligonucleotides (Example 3)
# Assay type: cell-based
# Conditions: HepaRG cells, 1,000 nM antisense oligonucleotide, Table 29
# How it was run: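 HepaRG cells at 20,000 per well electroporated with 1,000 nM 16-mer MOE/cEt/deoxy gapmers (phosphorothioate, 5-methylcytosine). After about 24 h, PKK mRNA measured by qRT-PCR with primer probe set RTS3454, normalized to RIBOGREEN total RNA. Reported as percent inhibition versus untreated cells.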
row,Substance,% inhibition
1,548608 (antisense eA*eT*k[5mC]*dG*dG*dT*dG*dG*dT*dG*dG*dG*dA*kT*kT*eG) [compound 548608],25%
2,548564 (antisense eT*eT*kG*d[5mC]*dT*dA*d[5mC]*dT*dT*dT*dA*d[5mC]*dA*k[5mC]*k[5mC]*eA) [compound 548564],69%
3,548554 (antisense eG*eT*kG*d[5mC]*dT*dG*d[5mC]*dA*dT*dT*dG*d[5mC]*dA*kT*kG*eA) [compound 548554],42%
4,548544 (antisense eG*e[5mC]*kT*dG*dT*dG*dA*d[5mC]*dT*d[5mC]*dA*dG*dA*kT*k[5mC]*eA) [compound 548544],62%
5,548593 (e[5mC]*eA*kT*d[5mC]*d[5mC]*d[5mC]*dT*dG*dA*d[5mC]*dA*dG*dG*kT*k[5mC]*e[5mC]; antisense) [compound 548593],61%

# Same assay, conditions: HepaRG cells, electroporation with 1,000 nM antisense oligonucleotide, approx. 24 hours, PKK mRNA by RT-PCR (RTS3454), relative to untreated control cells; Table 25 experiment
row,Substance,% inhibition
1,548218 (eT*e[5mC]*k[5mC]*dT*dG*dT*dG*d[5mC]*dA*dT*dA*dG*dA*k[5mC]*k[5mC]*e[5mC]; antisense) [compound 548218],59%
2,548191 (eG*eT*k[5mC]*dA*dA*d[5mC]*dA*dT*dA*dT*dT*d[5mC]*d[5mC]*kA*kT*eG; antisense) [compound 548191],0%
3,548215 (eG*e[5mC]*kA*dT*dA*dG*dA*d[5mC]*d[5mC]*d[5mC]*d[5mC]*dA*dA*k[5mC]*kA*eG; antisense) [compound 548215],61%
4,548156 (eT*e[5mC]*kA*dG*d[5mC]*d[5mC]*d[5mC]*d[5mC]*dT*dG*dG*dT*dT*kA*k[5mC]*eG; antisense) [compound 548156],0%
5,548182 (eA*eG*kT*d[5mC]*dA*dT*dG*dG*dA*dG*dA*dT*d[5mC]*kT*k[5mC]*eA; antisense) [compound 548182],55%
6,548192 (e[5mC]*e[5mC]*kT*dG*dT*d[5mC]*dA*dA*d[5mC]*dA*dT*dA*dT*kT*k[5mC]*e[5mC]; antisense) [compound 548192],65%
7,548176 (eG*eA*kT*d[5mC]*dT*d[5mC]*dA*dG*dT*dT*dG*d[5mC]*dG*kA*k[5mC]*e[5mC]; antisense) [compound 548176],38%

# Same assay, conditions: HepaRG cells, electroporation with 1,000 nM antisense oligonucleotide, approx. 24 hours, PKK mRNA by RT-PCR (RTS3454), relative to untreated control cells; Table 26 experiment
row,Substance,% inhibition
1,548230 (eT*eA*k[5mC]*dT*d[5mC]*dA*dT*dT*dG*dT*dT*dG*dT*kG*kT*eG; antisense) [compound 548230],10%
2,548297 (eA*e[5mC]*kT*d[5mC]*dT*d[5mC]*dA*dA*dG*d[5mC]*dT*d[5mC]*d[5mC]*kA*k[5mC]*eG; antisense) [compound 548297],32%
3,548262 (antisense e[5mC]*e[5mC]*kT*dA*dT*d[5mC]*d[5mC]*dG*dT*dG*dT*dT*d[5mC]*kA*kG*e[5mC]) [compound 548262],73%
4,548244 (e[5mC]*eA*kT*dG*d[5mC]*dA*dT*dA*d[5mC]*dT*d[5mC]*dG*d[5mC]*k[5mC]*kT*eT; antisense) [compound 548244],51%
5,548245 (e[5mC]*e[5mC]*kA*dT*dG*d[5mC]*dA*dT*dA*d[5mC]*dT*d[5mC]*dG*k[5mC]*k[5mC]*eT; antisense) [compound 548245],31%

# Same assay, conditions: HepaRG cells, electroporation with 1,000 nM antisense oligonucleotide, approximately 24 hours, primer probe set RTS3454, relative to untreated control cells; experiment of Table 23
row,Substance,% inhibition
1,547965 (antisense eG*eG*kG*dT*dT*d[5mC]*dA*dG*dG*dT*dA*dA*dA*kG*kT*eT) [compound 547965],29%
2,547993 (antisense eT*eA*kG*dA*dT*dA*dA*dT*d[5mC]*dT*dT*dA*dA*kG*kA*eA) [compound 547993],26%
3,547949 (eG*eT*kG*dT*dT*dT*dT*d[5mC]*dT*dT*dG*dA*dG*kG*kA*eG; antisense) [compound 547949],6%
4,547940 (eT*eT*kT*d[5mC]*dT*dT*dT*dG*dT*dG*dA*d[5mC]*dT*k[5mC]*kG*eA; antisense) [compound 547940],71%
5,547957 (eG*eG*kT*dT*dA*dA*dA*dA*dG*dG*d[5mC]*dT*dA*kT*kA*eT; antisense) [compound 547957],6%
6,547969 (antisense eT*e[5mC]*k[5mC]*d[5mC]*dG*dG*dG*dT*dA*dA*dA*dT*dT*kT*kT*eA) [compound 547969],0%

# Same assay, conditions: HepaRG cells, electroporation with 1,000 nM antisense oligonucleotide, approximately 24 hours, primer probe set RTS3454, relative to untreated control cells; experiment of Table 24
row,Substance,% inhibition
1,548022 (e[5mC]*e[5mC]*kA*d[5mC]*dT*d[5mC]*dT*d[5mC]*d[5mC]*d[5mC]*d[5mC]*dA*dA*kG*kA*eA; antisense) [compound 548022],69%
2,548032 (eA*eG*kA*dT*dG*d[5mC]*dG*d[5mC]*d[5mC]*dA*dA*dA*d[5mC]*kA*kT*e[5mC]; antisense) [compound 548032],51%
3,548051 (eA*eA*kG*dG*d[5mC]*dG*dA*dT*dA*dT*d[5mC]*dA*dT*kG*kA*eT; antisense) [compound 548051],61%

# Same assay, conditions: PKK mRNA, HepaRG cells, 1,000 nM antisense oligonucleotide; Table 31
row,Substance,% inhibition
1,548622 (antisense eT*eT*kT*d[5mC]*dT*dA*dT*dG*dG*dG*d[5mC]*d[5mC]*dT*kG*kA*e[5mC]) [compound 548622],0%
2,548666 (antisense eT*e[5mC]*kT*d[5mC]*d[5mC]*dA*dT*dA*dG*dT*dG*dA*dG*kA*k[5mC]*eG) [compound 548666],1%
3,548630 (antisense eT*eG*kG*dT*d[5mC]*d[5mC]*d[5mC]*dA*dA*dA*dT*dT*dG*kG*kA*eG) [compound 548630],33%
4,548631 (antisense e[5mC]*eT*k[5mC]*dA*d[5mC]*dA*dA*dT*dA*d[5mC]*dT*dG*dA*kG*k[5mC]*e[5mC]) [compound 548631],55%

# Same assay, conditions: Table 19; HepaRG cells, electroporation with 1,000 nM antisense oligonucleotide, approximately 24 hours; PKK mRNA by RT-PCR (RTS3454), relative to untreated control cells
row,Substance,% inhibition
1,548127 (eT*eT*kG*d[5mC]*d[5mC]*dT*dA*dG*dA*d[5mC]*dT*d[5mC]*dT*kG*kG*eA; antisense) [compound 548127],60%
2,548134 (e[5mC]*eA*kG*dA*dA*dT*dT*dT*dG*dA*d[5mC]*dT*dT*kG*kA*eA; antisense) [compound 548134],17%
3,548131 (eA*eA*kT*dT*dT*dG*dA*d[5mC]*dT*dT*dG*dA*dA*k[5mC]*kT*e[5mC]; antisense) [compound 548131],45%
4,548094 (antisense eG*eT*kT*dT*dG*d[5mC]*dA*dA*dA*d[5mC]*dT*dA*dA*kG*kG*eG) [compound 548094],74%
5,548135 (eT*e[5mC]*kA*dG*dA*dA*dT*dT*dT*dG*dA*d[5mC]*dT*kT*kG*eA; antisense) [compound 548135],46%

# Same assay, conditions: Table 20; HepaRG cells, electroporation with 1,000 nM antisense oligonucleotide, approximately 24 hours; PKK mRNA by RT-PCR (RTS3454), relative to untreated control cells
row,Substance,% inhibition
1,547916 (e[5mC]*e[5mC]*kT*dG*dG*d[5mC]*dA*dA*d[5mC]*dA*dT*d[5mC]*d[5mC]*kA*k[5mC]*eA; antisense) [compound 547916],70%
2,547852 (antisense eA*eT*kA*dA*dA*dT*dG*dT*d[5mC]*dT*d[5mC]*dG*dA*kT*kG*eG) [compound 547852],67%
3,547881 (eA*eT*kT*d[5mC]*dT*dT*d[5mC]*dA*dA*d[5mC]*dA*d[5mC]*dT*kG*k[5mC]*eT; antisense) [compound 547881],0%
4,547894 (eG*eG*k[5mC]*dA*dA*dT*dT*dG*dT*dT*d[5mC]*d[5mC]*dG*kG*kT*eA; antisense) [compound 547894],92%

# Same assay, conditions: Table 22 experiment; HepaRG cells, electroporation with 1,000 nM antisense oligonucleotide, approx. 24 hours; PKK mRNA by RT-PCR (RTS3454), relative to untreated control cells
row,Substance,% inhibition
1,547916 (e[5mC]*e[5mC]*kT*dG*dG*d[5mC]*dA*dA*d[5mC]*dA*dT*d[5mC]*d[5mC]*kA*k[5mC]*eA; antisense) [compound 547916],56%
2,547852 (antisense eA*eT*kA*dA*dA*dT*dG*dT*d[5mC]*dT*d[5mC]*dG*dA*kT*kG*eG) [compound 547852],66%
3,547881 (eA*eT*kT*d[5mC]*dT*dT*d[5mC]*dA*dA*d[5mC]*dA*d[5mC]*dT*kG*k[5mC]*eT; antisense) [compound 547881],50%
4,547878 (antisense e[5mC]*eA*kA*d[5mC]*dA*d[5mC]*dT*dG*d[5mC]*dT*dA*dA*d[5mC]*k[5mC]*kT*eT) [compound 547878],62%
5,547894 (eG*eG*k[5mC]*dA*dA*dT*dT*dG*dT*dT*d[5mC]*d[5mC]*dG*kG*kT*eA; antisense) [compound 547894],91%

# Same assay, conditions: Table 27; HepaRG cells, 1,000 nM antisense oligonucleotide; human PKK mRNA
row,Substance,% inhibition
1,548373 (eT*e[5mC]*k[5mC]*d[5mC]*d[5mC]*dA*dA*dG*dA*dT*dT*dA*dT*kG*kT*eG; antisense) [compound 548373],16%
2,548359 (antisense e[5mC]*e[5mC]*kT*dA*dG*dT*d[5mC]*d[5mC]*dT*d[5mC]*dA*dA*dG*kT*kT*eT) [compound 548359],0%

# Same assay, conditions: Table 28; HepaRG cells, 1,000 nM antisense oligonucleotide; human PKK mRNA
row,Substance,% inhibition
1,548525 (antisense eG*eT*k[5mC]*dT*dA*dA*d[5mC]*dT*dG*dG*d[5mC]*d[5mC]*dT*kG*kG*e[5mC]) [compound 548525],2%
2,548506 (antisense eG*eA*kA*dG*d[5mC]*d[5mC]*dA*dT*dT*d[5mC]*dA*d[5mC]*dT*kG*k[5mC]*eA) [compound 548506],32%

# Same assay, conditions: Table 30; human PKK mRNA, HepaRG cells, 1,000 nM antisense oligonucleotide
row,Substance,% inhibition
1,548445 (antisense e[5mC]*e[5mC]*kT*dA*dT*dG*dT*d[5mC]*dA*d[5mC]*dT*dG*dT*kA*k[5mC]*e[5mC]) [compound 548445],62%
2,548382 (eG*eA*kG*d[5mC]*dA*dA*dA*dT*dA*d[5mC]*dA*dG*dT*k[5mC]*k[5mC]*eA; antisense) [compound 548382],19%
3,548395 (eA*eT*k[5mC]*d[5mC]*dT*dT*d[5mC]*d[5mC]*d[5mC]*d[5mC]*dT*d[5mC]*dG*k[5mC]*kA*eA; antisense) [compound 548395],0%
4,548394 (eG*eG*k[5mC]*dA*dG*dG*dA*dG*dA*d[5mC]*dT*d[5mC]*d[5mC]*kG*kT*eG; antisense) [compound 548394],25%
